Source: patent US20230227466A1, “SUBSTITUTED THIENOPYRIMIDINES THAT INTERACT WITH THE RAS SUPERFAMILY FOR THE TREATMENT OF CANCERS, INFLAMMATORY DISEASES, RASOPATHIES, AND FIBROTIC DISEASE” (SHY Therapeutics, LLC, priority 2020, published 2023)
Where two headings read alike, the source gives them in different places.

Legend:
KRas G12C mutant = target: T1, KRas G12C mutant (Homo sapiens, UniProt P01116, G12C); experiment: Ras GTP binding domain inhibition assay (labeled-GTP competition, cell-free)
T1 construct: made in house
Summary of the method: (§1)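 Labeled-GTP competition read out as bound Cy3/Cy5-GTP fluorescence after washes, with 100 nM tracer for 45 min at RT. Before tracer, compounds at 20 μM, or a dilution series for IC50, sat 3 h at RT on the Ni-immobilized His-tagged GTPase. Sos GEF (10-30 μg/mL) was optionally present for the last hour.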

KRas G12D mutant = target: T2, KRas G12D mutant (Homo sapiens, UniProt P01116, G12D); experiment: as above
T2 construct: made in house
Summary of the method: as §1

KRas Q61H mutant = target: T3, KRas Q61H mutant (Homo sapiens, UniProt P01116, Q61H); experiment: as above
T3 construct: made in house
Summary of the method: as §1

[1] = tested on: ERK1/2 phosphorylation in Panc-1 cells; experiment: Western ERK1/2 cell-based phosphorylation assay; design: species or system human; settings: at 10 μM, values in brackets < > are activation %, not inhibition
Summary of the method: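 Western blot with anti-phospho-p44/42 (Thr202/Tyr204) measured ERK1/2 phosphorylation after 15 min EGF (1.5 ng/ml) stimulation. Beforehand, serum-starved (0.5% FBS, overnight) Panc-1 cells received compounds for 6 h at 37 °C, at 10 μM final in 0.3% DMSO or as dilution series for IC50.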

KRas wild type = KRas wild type (Homo sapiens, UniProt P01116); experiment: Ras GTP binding domain inhibition assay (labeled-GTP competition, cell-free); design: made in house
Summary of the method: as §1

Rac-1 = Rac-1 (Homo sapiens, UniProt P63000); experiment: as above; design: made in house
Summary of the method: as §1

Rho-A = Rho-A (Homo sapiens, UniProt P61586); experiment: as above; design: made in house
Summary of the method: as §1

[2] = with SOS, read-out: KRas G12C mutant + SOS: % inh.
[3] = without SOS, read-out: KRas G12C mutant: % inh.
[4] = with SOS, read-out: KRas G12D mutant + SOS: % inh.
[5] = without SOS, read-out: KRas G12D mutant: % inh.
[6] = with SOS, read-out: KRas Q61H mutant + SOS: % inh.
[7] = without SOS, read-out: KRas Q61H mutant: % inh.
[8] = with SOS, read-out: KRas wild type + SOS: % inh.
[9] = without SOS, read-out: KRas wild type: % inh.
[10] = with SOS, read-out: Rac-1 + SOS: % inh.
[11] = without SOS, read-out: Rac-1: % inh.
[12] = with SOS, read-out: Rho-A + SOS: % inh.
[13] = without SOS, read-out: Rho-A: % inh.

SMILES	inhibition at 20 µM (KRas G12C mutant; [2]) [%]	inhibition at 20 µM (KRas G12C mutant; [3]) [%]	inhibition at 20 µM (KRas G12D mutant; [4]) [%]	inhibition at 20 µM (KRas G12D mutant; [5]) [%]	inhibition at 20 µM (KRas Q61H mutant; [6]) [%]	inhibition at 20 µM (KRas Q61H mutant; [7]) [%]	IC50 (KRas Q61H mutant; with SOS) [µM]	% inh of ERK1/2 phosphorylation in PANC-1 [1]	inhibition at 20 µM (KRas wild type; [8]) [%]	inhibition at 20 µM (KRas wild type; [9]) [%]	inhibition at 20 µM (Rac-1; [10]) [%]	inhibition at 20 µM (Rac-1; [11]) [%]	inhibition at 20 µM (Rho-A; [12]) [%]	inhibition at 20 µM (Rho-A; [13]) [%]
CO[C@H]1CC[C@@H](Nc2nc(C(=O)N3CCOCC3)nc3sccc23)C1 (racemic) [Compound 12, Rac-(4-(((1R,3S)-3-methoxycyclopentyl)amino)thieno[2,3-d]pyrimidin-2-yl)(morpholino)methanone]	1 to 25	1 to 25	0	1 to 25	0	1 to 25	> 10	0 (0% inhibition)	1 to 25	0	1 to 25	0	1 to 25	1 to 25
Cc1c(-c2ccn(C(C)C)n2)sc2nc(-c3nccn3C)nc(NC3CCOC3)c12 (racemic) [Compound 37, rac-6-(1-Isopropyl-1H-pyrazol-3-yl)-5-methyl-2-(1-methyl-1H-imidazol-2-yl)-N-(tetrahydrofuran-3-yl)thieno[2,3-d]pyrimidin-4-amine]	76 to 100	76 to 100	76 to 100	76 to 100	76 to 100	76 to 100		0 (0% inhibition)	76 to 100	76 to 100	76 to 100	76 to 100	76 to 100	76 to 100
Cn1ccnc1-c1nc(O)c2scc(-c3ncccc3F)c2n1 [Compound 30, 7-(3-Fluoropyridin-2-yl)-2-(1-methyl-1H-imidazol-2-yl)thieno[3,2-d]pyrimidin-4-ol]	76 to 100	51 to 75	51 to 75	51 to 75	76 to 100	51 to 75	1 to 4.99	0 (0% inhibition)	76 to 100	76 to 100	51 to 75	51 to 75	76 to 100	76 to 100
Oc1nc(-c2nccn2CCOCC(F)(F)F)nc2c(-c3ccccn3)csc12 [Compound 81, 7-(Pyridin-2-yl)-2-(1-(2-(2,2,2-trifluoroethoxy)ethyl)-1H-imidazol-2-yl)thieno[3,2-d]pyrimidin-4-ol]	51 to 75	51 to 75	76 to 100	51 to 75	51 to 75	51 to 75		B (26-50% inhibition)	76 to 100	76 to 100		76 to 100		76 to 100
NC(=O)c1nc(O)c2scc(-c3ccccn3)c2n1 [Compound 18, 4-Hydroxy-7-(pyridin-2-yl)thieno[3,2-d]pyrimidine-2-carboxamide]	26 to 50	26 to 50	26 to 50	51 to 75	26 to 50	26 to 50	> 10	0 (0% inhibition)	1 to 25	26 to 50	26 to 50	26 to 50	26 to 50	26 to 50
Oc1nc(-c2nccn2CCOCc2ccccc2)nc2c(-c3ccccn3)csc12 [Compound 83, 2-(1-(2-(Benzyloxy)ethyl)-1H-imidazol-2-yl)-7-(pyridin-2-yl)thieno[3,2-d]pyrimidin-4-ol]	51 to 75	1 to 25	51 to 75	51 to 75	51 to 75	26 to 50		B (26-50% inhibition)	26 to 50	51 to 75		76 to 100		51 to 75
Cc1c(-c2ccn(C(C)C)n2)sc2nc(-c3nccn3C)nc(NCCc3cn(C)cn3)c12 [Compound 58, 6-(1-Isopropyl-1H-pyrazol-3-yl)-5-methyl-2-(1-methyl-1H-imidazol-2-yl)-N-(2-(1-methyl-1H-imidazol-4-yl)ethyl)thieno[2,3-d]pyrimidin-4-amine]	76 to 100	76 to 100	51 to 75	26 to 50	51 to 75	51 to 75		A (1-25% inhibition)	76 to 100	76 to 100		26 to 50		76 to 100
COCCCNc1nc(-c2nccn2C)nc2sc(-c3ccn(C(C)C)n3)c(C)c12 [Compound 36, 6-(1-Isopropyl-1H-pyrazol-3-yl)-N-(3-methoxypropyl)-5-methyl-2-(1-methyl-1H-imidazol-2-yl)thieno[2,3-d]pyrimidin-4-amine]	76 to 100	76 to 100	76 to 100	51 to 75	76 to 100	76 to 100		C (51-75% inhibition)	76 to 100	76 to 100	76 to 100	76 to 100	76 to 100	26 to 50
COCCn1ccnc1-c1nc(N[C@@H]2CC[C@H](OC)C2)c2c(-c3ccccc3)c(-c3ccn(C)n3)sc2n1 (racemic) [Compound 6, Rac-N-((1R,3S)-3-methoxycyclopentyl)-2-(1-(2-methoxyethyl)-1H-imidazol-2-yl)-6-(1-methyl-1H-pyrazol-3-yl)-5-phenylthieno[2,3-d]pyrimidin-4-amine]	76 to 100	76 to 100	76 to 100	76 to 100	76 to 100	76 to 100	1 to 4.99	D (76-100% inhibition)	76 to 100	76 to 100	76 to 100	76 to 100	76 to 100	76 to 100
COc1ccnc(Nc2nc(-c3nccn3C)nc3sc(-c4ccn(C(C)C)n4)c(C)c23)n1 [Compound 68, 6-(1-Isopropyl-1H-pyrazol-3-yl)-N-(4-methoxypyrimidin-2-yl)-5-methyl-2-(1-methyl-1H-imidazol-2-yl)thieno[2,3-d]pyrimidin-4-amine]	51 to 75	76 to 100	76 to 100	76 to 100	51 to 75	76 to 100		C (51-75% inhibition)	76 to 100	76 to 100		76 to 100		76 to 100
